In patent US12031986B2, “Polypeptide for targeting recognition of immune cells and application thereof” (KEYANGLE LIFE TECHNOLOGY CO., LTD., priority 2019, dated 2024):
“Also recorded” adds a separate entry of the source. No end group written: not given here. K(rhodamine) = not defined here; code X = not defined here

Test system: mouse peritoneal macrophages
Assay: In vivo fluorescent labeling of macrophages in a mouse abdominal cavity
Settings: in vivo probe labeling, then F4/80 antibody double-stain of extracted peritoneal cells
Method: Dilute 300 μL of 50 μM AK9 fluorescent probe solution with serum-free DMEM incomplete medium to obtain 1 mL of solution, then inject into the abdominal cavities of 5-8 week old Kunming mice. After 4 hours, inject 5 mL of 1×PBS, and massage. After 10 minutes, sacrifice the mice by cervical vertebra dislocation. Cut the abdominal cavity skin of the mice, pierce the abdominal wall muscle by syringe, and extract the fluid in the abdominal cavity of the mice. Centrifuge the extracted peritoneal fluid at 1000 rpm for 5 min, wash twice with 1×PBS. Double-stain an appropriate number of cells with Alexa Fluor 488 anti-mouse F4/80 antibody (Biolegend). Add the stained cells to a 96-well plate and stain with a nuclear dye Nucblue (Invitrogen). Observe under EVOS FL Auto fluorescence microscope (Life Technologies, 20×, light source 50%, exposure 200 ms, gain 10) after the suspended cells were settled down at the bottom of the plate.
Table 1 lists probes, which contain the polypeptide fragments from the C-terminal fragments of Triokinases/FMN cyclases of different species and were prepared by a similar process as described in Examples 1 and 2, and in vivo imaging results of mouse peritoneal macrophages using these probes.

Substance	labeling on the same cells, probe and F4/80 antibody
AILEVLQS-Y (AILEVLQS-{K(rhodamine)}; reading uncertain) [AK9, Human Triokinase/FMN cyclase C-terminal fragment; Y is lysine + rhodamine fluorescent labeling group on the lysine side chain]	labeled on the same cells

Same assay, conditions: probe injected into abdominal cavity, cells extracted after 4 hours, fluorescence microscope

Substance	in vivo labeling / recognition of mouse peritoneal macrophages by the fluorescent probe
X-TKNMEAGAGRASYISSARLEQPDPGAVAAAAILRAILEVLQS (not fully specified (N-terminus); listed as Homo sapiens) [TS42]	can effectively recognize macrophages in vivo; also recorded: can be labeled
X-EQPDPGAVAAAAILRAILEVLQS ({code X}-EQPDPGAVAAAAILRAILEVLQS; reading uncertain; also: reporter type not given here, printed as X-EQPDPGAVAAAAILRAILEVLQS; listed as Homo sapiens) [KS24, X = reporter or cysteine/lysine + reporter at N-terminal]	can effectively recognize macrophages in vivo; also recorded: can be labeled
AILEVLQS-Y (AILEVLQS-{K(rhodamine)}; reading uncertain) [AK9, Human Triokinase/FMN cyclase C-terminal fragment; Y is lysine + rhodamine fluorescent labeling group on the lysine side chain]	can effectively recognize macrophages in vivo
VLRAVLEVLQG-Y (VLRAVLEVLQGY; also: reporter type not given here) [Hx-VVGK12, Y = reporter or cysteine/lysine + reporter]	can be labeled
X-EQPDPSAVAAAAILRAILEVLQG (not fully specified (N-terminus); printed as X-EQPDPSAVAAAAILRAILEVLQG; also: N-terminal reporter, not given here) [KESG24, X = reporter or cysteine/lysine + reporter]	can be labeled
X-DQPDPGAVAAAAIFRAILEVLQTKAA ({code X}-DQPDPGAVAAAAIFRAILEVLQTKAA; reading uncertain; also: reporter type not given here, printed as X-DQPDPGAVAAAAIFRAILEVLQTKAA; listed as Rattus norvegicus) [r-KA27, X = reporter or cysteine/lysine + reporter]	can effectively recognize macrophages in vivo; also recorded: can be labeled
LQPDPSAVAAAAVLRAVLEVLQG-Y (LQPDPSAVAAAAVLRAVLEVLQGY; also: reporter type not given here) [Cx-LK24, Y = reporter or cysteine/lysine + reporter]	can be labeled
LQPDPGAVAAAAVLRAVLEGLQG-Y (LQPDPGAVAAAAVLRAVLEGLQGY; also: reporter type not given here; listed as Gallus gallus) [LK24, Y = reporter or cysteine/lysine + reporter]	can effectively recognize macrophages in vivo; also recorded: can also be labeled
PGAVAAAAILRAILEVLQS-Y (PGAVAAAAILRAILEVLQSY; also: reporter type not given here; listed as Homo sapiens) [PK20, Y = reporter or cysteine/lysine + reporter]	can effectively recognize macrophages in vivo; also recorded: can be labeled
ILRAILEVLQS-Y (ILRAILEVLQSY; also: reporter type not given here; listed as Homo sapiens) [IK12, Y = reporter or cysteine/lysine + reporter]	can effectively recognize macrophages in vivo; also recorded: can be labeled
X-DQPDPGAVAAAAILRAILEVLQSQGA ({code X}-DQPDPGAVAAAAILRAILEVLQSQGA; reading uncertain; also: reporter type not given here, printed as X-DQPDPGAVAAAAILRAILEVLQSQGA; listed as Sus scrofa) [b-KA27, X = reporter or cysteine/lysine + reporter]	can effectively recognize macrophages in vivo; also recorded: can be labeled
AVLEVLQG-Y (AVLEVLQGY; also: reporter type not given here) [Hx-AVGK9, Y = reporter or cysteine/lysine + reporter]	can be labeled
X-DQPDPGAVAAAAILRTILEVLQSQGV ({code X}-DQPDPGAVAAAAILRTILEVLQSQGV; reading uncertain; also: reporter type not given here, printed as X-DQPDPGAVAAAAILRTILEVLQSQGV; listed as Canis lupus) [d-KV27, X = reporter or cysteine/lysine + reporter]	can effectively recognize macrophages in vivo; also recorded: can be labeled
LRAILEVLQS-Y (LRAILEVLQSY; also: reporter type not given here; listed as Homo sapiens) [LK11, Y = reporter or cysteine/lysine + reporter]	can effectively recognize macrophages in vivo; also recorded: can be labeled
AAILRAILEVLQS-Y (AAILRAILEVLQSY; also: C-terminal Y: reporter or Cys/Lys + reporter (rhodamine or FITC), not given here; listed as Homo sapiens) [AK14, Y = reporter or cysteine/lysine + reporter]	can effectively recognize macrophages in vivo; also recorded: can be labeled

Test system: mouse peritoneal macrophages
Assay: In vitro fluorescent labeling of mouse peritoneal macrophages at different incubation times
Type: cell-based
Settings: incubating only for 10 min
Method: Referring to Example 9, using the same treatment process, the macrophages from mouse abdominal cavity were obtained. After culturing for 6 days, the cultured peritoneal cells were labeled with KS24 fluorescent probes for different incubation times. Then the cells were observed under a fluorescence microscope (20×, light source 20%, exposure 200 ms, gain 5).
Nucblue (blue fluorescence) was further used for nuclear staining. In each of FIGS. 14A, 14B, 14C, and 14D, i) is an image labeled with the KS24 fluorescent probe (shown in red fluorescence in the original fluorescence color image), and ii) is an image obtained by nuclear staining with Nucblue (shown in blue fluorescence in the original fluorescence color image), and iii) is a merged image of i) and ii).

Substance	fluorescence detection with microscope
X-EQPDPGAVAAAAILRAILEVLQS ({code X}-EQPDPGAVAAAAILRAILEVLQS; reading uncertain; also: reporter type not given here, printed as X-EQPDPGAVAAAAILRAILEVLQS; listed as Homo sapiens) [KS24, X = reporter or cysteine/lysine + reporter at N-terminal]	can be even detected

Same assay, conditions: incubation 10, 20, 40 and 80 min; cells cultured 6 days

Substance	labeled fluorescence of the cells versus incubation time
X-EQPDPGAVAAAAILRAILEVLQS ({code X}-EQPDPGAVAAAAILRAILEVLQS; reading uncertain; also: reporter type not given here, printed as X-EQPDPGAVAAAAILRAILEVLQS; listed as Homo sapiens) [KS24, X = reporter or cysteine/lysine + reporter at N-terminal]	gradually becomes stronger with the incubation time
